Laboratory results: patent publication US20200032214A1, “METHOD FOR PRODUCING MYOCARDIAL STEM CELL USED FOR TREATMENT AND/OR PREVENTION OF CARDIAC ARREST” (LUCA Science Inc., priority 2016, published 2020)

Tested on: mitochondrial membrane potential
Test: Mitochondrial membrane potential with fluorescent dye JC-1
Assay type: cell-based, mouse
Conditions: microscopy; FIG. 15
Text: For MA-Cell, and CPC prepared in Example 1, the mitochondrial membrane potential was examined using fluorescent dye JC-1 (Invitrogen) in accordance with manufacturer's protocol. JC-1 emits red fluorescence with a wavelength of 590 nm when accumulating on polarized mitochondria, and JC-1 is diffused into the cytoplasm to emit green fluorescence with a wavelength of 529 nm when mitochondria are depolarized (the membrane potential is eliminated).
Further, for 19 cells for each of MA-Cell and CPC, a ratio of the fluorescence intensity of polarized mitochondria (red, Dimer) to the fluorescence intensity of depolarized mitochondria (green, Monomer) (Dimer/Monomer ratio) was calculated (FIG. 16).

N#CC(C#N)=NNc1ccc(OC(F)(F)F)cc1 [FCCP]
JC-1 red fluorescence (polarized mitochondria): red fluorescence was substantially eliminated
